Data as given in ChEMBL document CHEMBL1147945, “R-isomers of Arg-Gly-Asp (RGD) mimics as potent alphavbeta3 inhibitors” (Bioorg Med Chem, 2007).
Active and inactive are the calls of the source. No cut-off for these calls is given here.

Experiments:
[1] = Drug level in BALB/c mouse plasma after 6 hrs at 100 mg/kg, ip; type: ADME, organism-based; design: dose 100 mg/kg, route intraperitoneal; details: read-out: Drug uptake
[2] = tested on: M21; experiment: Decrease in tumor volume in SCID mouse implanted with human M21 cells at 100 mg/kg, ip twice daily after 28 days relative to control; type: functional; design: scale not given: the % may be the effect or the level left; details: route intraperitoneal
[3] = tested on: M21; experiment: Decrease in tumor weight in SCID mouse implanted with human M21 cells at 100 mg/kg, ip twice daily after 28 days relative to control; type: functional; design: scale not given: the % may be the effect or the level left; details: route intraperitoneal
[4] = Half life in mouse at 20 mg/kg po or 10 mg/kg iv; type: ADME, organism-based; details: in vivo
[5] = tested on: Colon 26; experiment: Inhibition of tumor growth in twice daily ip dosed BALB/c mouse implanted with mouse colon 26 tumor cells after 21 days; type: functional, organism-based
[6] = target: Integrin alpha-V/beta-6 (Homo sapiens, UniProt P06756+P18564); experiment: Inhibition of alpha-V-beta-6 integrin receptor in human HT29 cells; type: cell-based, HT-29
[7] = Drug level in BALB/c mouse plasma after 6 hrs at 10 mg/kg, ip; type: ADME, organism-based; design: dose 10 mg/kg, route intraperitoneal; details: read-out: Drug uptake
[8] = tested on: Mus musculus; experiment: Decrease in colon 26 tumor-induced hypercalcemia in BALB/c mouse at 100 mg/kg, ip twice daily; type: functional; design: scale not given: the % may be the effect or the level left; details: route intraperitoneal
[9] = target: Integrin alpha-V/beta-3 (Homo sapiens, UniProt P05106+P06756); experiment: Inhibition of alphaVbeta3 integrin receptor expressed in human 293 cells; type: cell-based, HEK293
[10] = Bioavailability in mouse at 20 mg/kg, po; type: ADME, organism-based; details: in vivo
[11] = Drug level in BALB/c mouse plasma after 6 hrs at 1 mg/kg, ip; type: ADME, organism-based; design: dose 1 mg/kg, route intraperitoneal; details: read-out: Drug uptake
[12] = tested on: Colon 26; experiment: Decrease in tumor weight in BALB/c mouse implanted with colon 26 tumor cells at 100 mg/kg, ip twice daily after 21 days relative to control; type: functional; design: scale not given: the % may be the effect or the level left; details: route intraperitoneal
[13] = tested on: Colon 26; experiment: Decrease in tumor volume in BALB/c mouse implanted with mouse colon 26 tumor cells at 100 mg/kg, ip twice daily after 21 days relative to control; type: functional; design: scale not given: the % may be the effect or the level left; details: route intraperitoneal
[14] = tested on: M21; experiment: Inhibition of tumor growth in twice daily ip dosed SCID mouse implanted with human M21 cells after 28 days; type: functional, organism-based

Chain of Integrin alpha-V/beta-6 (P06756 31-889 limits assumed): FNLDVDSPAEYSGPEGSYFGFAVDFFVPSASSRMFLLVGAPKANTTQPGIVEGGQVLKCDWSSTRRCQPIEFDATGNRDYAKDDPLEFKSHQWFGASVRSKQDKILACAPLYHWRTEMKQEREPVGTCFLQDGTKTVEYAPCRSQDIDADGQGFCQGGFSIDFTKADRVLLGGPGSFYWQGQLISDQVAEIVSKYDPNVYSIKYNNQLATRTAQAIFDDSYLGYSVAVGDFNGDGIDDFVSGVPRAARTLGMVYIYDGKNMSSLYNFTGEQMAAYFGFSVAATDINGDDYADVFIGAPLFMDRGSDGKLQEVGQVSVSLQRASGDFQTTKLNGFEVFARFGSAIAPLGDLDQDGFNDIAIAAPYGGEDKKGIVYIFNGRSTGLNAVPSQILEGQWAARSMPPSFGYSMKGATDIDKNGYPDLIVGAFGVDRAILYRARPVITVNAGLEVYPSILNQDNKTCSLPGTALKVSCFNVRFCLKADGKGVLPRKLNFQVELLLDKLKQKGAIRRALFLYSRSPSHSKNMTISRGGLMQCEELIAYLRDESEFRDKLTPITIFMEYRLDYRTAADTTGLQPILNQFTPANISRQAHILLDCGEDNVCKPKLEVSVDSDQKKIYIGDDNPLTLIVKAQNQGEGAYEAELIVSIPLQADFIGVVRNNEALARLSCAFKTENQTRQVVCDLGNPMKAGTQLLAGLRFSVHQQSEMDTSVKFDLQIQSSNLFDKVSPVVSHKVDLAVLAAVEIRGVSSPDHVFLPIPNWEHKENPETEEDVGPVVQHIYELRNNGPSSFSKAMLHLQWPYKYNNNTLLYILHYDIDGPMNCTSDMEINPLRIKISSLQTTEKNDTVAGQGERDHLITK
Chain of Integrin alpha-V/beta-6 (P06756 891-1048 limits assumed): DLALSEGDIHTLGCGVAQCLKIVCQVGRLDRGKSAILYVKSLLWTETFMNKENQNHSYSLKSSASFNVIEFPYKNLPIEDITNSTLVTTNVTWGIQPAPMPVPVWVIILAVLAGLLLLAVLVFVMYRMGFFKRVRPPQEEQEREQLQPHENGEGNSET
Chain of Integrin alpha-V/beta-6 (P18564 22-788 limits assumed): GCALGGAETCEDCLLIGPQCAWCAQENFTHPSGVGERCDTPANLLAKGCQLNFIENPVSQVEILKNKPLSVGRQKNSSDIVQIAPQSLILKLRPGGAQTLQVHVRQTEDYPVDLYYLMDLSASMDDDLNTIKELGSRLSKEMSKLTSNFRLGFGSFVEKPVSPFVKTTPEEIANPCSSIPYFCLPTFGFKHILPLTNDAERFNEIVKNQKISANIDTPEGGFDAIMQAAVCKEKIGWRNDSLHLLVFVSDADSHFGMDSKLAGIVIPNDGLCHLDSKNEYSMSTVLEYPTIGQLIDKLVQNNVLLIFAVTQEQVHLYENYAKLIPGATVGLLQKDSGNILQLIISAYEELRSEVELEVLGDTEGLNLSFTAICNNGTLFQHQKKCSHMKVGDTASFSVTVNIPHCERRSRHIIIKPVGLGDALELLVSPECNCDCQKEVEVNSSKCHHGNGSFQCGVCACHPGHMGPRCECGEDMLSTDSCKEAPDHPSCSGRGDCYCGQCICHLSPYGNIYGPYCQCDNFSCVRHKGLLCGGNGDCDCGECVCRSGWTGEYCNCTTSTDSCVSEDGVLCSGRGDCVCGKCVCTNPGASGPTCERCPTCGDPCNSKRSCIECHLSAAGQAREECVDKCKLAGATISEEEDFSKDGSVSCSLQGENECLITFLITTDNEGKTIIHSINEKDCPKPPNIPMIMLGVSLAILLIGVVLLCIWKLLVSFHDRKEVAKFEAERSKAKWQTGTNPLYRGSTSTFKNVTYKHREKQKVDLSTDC
Chain of Integrin alpha-V/beta-3 (P05106 27-788 limits assumed): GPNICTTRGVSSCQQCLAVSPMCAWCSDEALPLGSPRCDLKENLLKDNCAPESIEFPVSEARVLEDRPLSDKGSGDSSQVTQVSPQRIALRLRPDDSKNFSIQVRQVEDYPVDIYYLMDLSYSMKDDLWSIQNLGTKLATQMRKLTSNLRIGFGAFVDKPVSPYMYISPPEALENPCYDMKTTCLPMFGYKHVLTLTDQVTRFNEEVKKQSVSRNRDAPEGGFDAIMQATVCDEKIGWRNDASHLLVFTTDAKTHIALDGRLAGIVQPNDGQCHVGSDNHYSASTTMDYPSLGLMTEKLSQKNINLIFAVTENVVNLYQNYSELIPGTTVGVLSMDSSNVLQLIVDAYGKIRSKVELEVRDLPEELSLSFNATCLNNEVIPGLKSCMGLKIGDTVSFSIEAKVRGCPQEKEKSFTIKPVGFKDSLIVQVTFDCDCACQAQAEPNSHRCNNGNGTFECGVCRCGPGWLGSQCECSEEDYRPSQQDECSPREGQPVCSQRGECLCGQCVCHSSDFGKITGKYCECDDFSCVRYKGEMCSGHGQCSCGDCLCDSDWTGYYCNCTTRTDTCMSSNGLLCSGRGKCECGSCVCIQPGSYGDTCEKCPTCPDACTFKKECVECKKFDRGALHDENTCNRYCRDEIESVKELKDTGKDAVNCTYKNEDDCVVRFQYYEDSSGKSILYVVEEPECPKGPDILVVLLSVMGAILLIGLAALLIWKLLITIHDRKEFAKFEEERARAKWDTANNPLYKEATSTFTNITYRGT
Chain of Integrin alpha-V/beta-3 (P06756 31-889 limits assumed): as the sequence (P06756 31-889 limits assumed) above
Chain of Integrin alpha-V/beta-3 (P06756 891-1048 limits assumed): as the sequence (P06756 891-1048 limits assumed) above

## O=C(O)C[C@@H](NC(=O)CNC(=O)c1cc(O)cc(NC2=NCC(F)CN2)c1)c1cc(Cl)cc(Br)c1O (some centres undefined)
[1]
  concentration at 6 h: 84400 ng/mL
[2]
  Activity: 62%
[3]
  Activity: 53%
[4]
  half-life: 2 h
[5]
  Activity: Active
[6]
  IC50: 0.366 µM
[7]
  concentration at 6 h: 19400 ng/mL
[8]
  Activity: 64%
[9]
  IC50: 0.001 µM
[10]
  bioavailability: 5.9%
[11]
  concentration at 6 h: 3300 ng/mL
[12]
  Activity: 55%
[13]
  Activity: 60%
[14]
  Activity: Dose-dependent effect
